Source: the supplement of paper PMC10307832

Assays:
Assay in all cases: relative viability (nuclei count vs DMSO), 5 days (fraction); higher = more cells survive
Adavosertib + Olaparib = compound: C=CCn1c(=O)c2cnc(Nc3ccc(N4CCN(C)CC4)cc3)nc2n1-c1cccc(C(C)(C)O)n1 [Adavosertib] + O=C(c1cc(Cc2n[nH]c(=O)c3ccccc23)ccc1F)N1CCN(C(=O)C2CC2)CC1 [Olaparib] (partner 8 µM)
How it was run: (§1)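 Values are medians from duplicate plates. Each reflects relative viability, defined as the nuclei count of treated wells over that of vehicle wells. Lung cancer cell lines in 1536-well plates were pin-tool dosed one day after seeding with one drug alone or with a fixed anchor-drug dose plus five library-drug doses (not always all listed) in √10 steps, then fixed, stained and imaged at 4× after 5 days.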

Adavosertib + Pemetrexed = compound: C=CCn1c(=O)c2cnc(Nc3ccc(N4CCN(C)CC4)cc3)nc2n1-c1cccc(C(C)(C)O)n1 [Adavosertib] + Nc1nc2[nH]cc(CCc3ccc(C(=O)N[C@@H](CCC(=O)O)C(=O)O)cc3)c2c(=O)[nH]1 [Pemetrexed] (partner 0.2 µM)
How it was run: as §1

Nelarabine + Vorinostat = compound: COc1nc(N)nc2c1ncn2[C@@H]1O[C@H](CO)[C@@H](O)[C@@H]1O [Nelarabine] + O=C(CCCCCCC(=O)Nc1ccccc1)NO [Vorinostat] (partner 1 µM)
How it was run: as §1

Nelarabine + Pictilisib = compound: COc1nc(N)nc2c1ncn2[C@@H]1O[C@H](CO)[C@@H](O)[C@@H]1O [Nelarabine] + CS(=O)(=O)N1CCN(Cc2cc3nc(-c4cccc5[nH]ncc45)nc(N4CCOCC4)c3s2)CC1 [Pictilisib] (partner 1 µM)
How it was run: as §1

NCI-H460
relative viability (Adavosertib + Olaparib; first compound 0.01 µM): 0.391
relative viability (Adavosertib + Olaparib; first compound 0.03162 µM): 0.376
relative viability (Adavosertib + Olaparib; first compound 0.1 µM): 0.308
relative viability (Adavosertib + Olaparib; first compound 0.3162 µM): 0.405
relative viability (Adavosertib + Pemetrexed; first compound 0.01 µM): 0.0616
relative viability (Adavosertib + Pemetrexed; first compound 0.03162 µM): 0.0693
relative viability (Adavosertib + Pemetrexed; first compound 0.1 µM): 0.0573
relative viability (Adavosertib + Pemetrexed; first compound 0.3162 µM): 0.0705
relative viability (Nelarabine + Vorinostat; first compound 0.01 µM): 1.42
relative viability (Nelarabine + Vorinostat; first compound 0.03162 µM): 1.5
relative viability (Nelarabine + Vorinostat; first compound 0.1 µM): 0.889
relative viability (Nelarabine + Vorinostat; first compound 0.3162 µM): 1.13
relative viability (Nelarabine + Vorinostat; first compound 1 µM): 0.923
relative viability (Nelarabine + Pictilisib; first compound 0.01 µM): 0.408
relative viability (Nelarabine + Pictilisib; first compound 0.03162 µM): 0.431
relative viability (Nelarabine + Pictilisib; first compound 0.1 µM): 0.379
relative viability (Nelarabine + Pictilisib; first compound 0.3162 µM): 0.407
relative viability (Nelarabine + Pictilisib; first compound 1 µM): 0.337

HCC-78
relative viability (Adavosertib + Olaparib; first compound 0.01 µM): 0.966
relative viability (Adavosertib + Olaparib; first compound 0.03162 µM): 0.807
relative viability (Adavosertib + Olaparib; first compound 0.1 µM): 0.83
relative viability (Adavosertib + Olaparib; first compound 0.3162 µM): 0.835
relative viability (Adavosertib + Pemetrexed; first compound 0.01 µM): 0.921
relative viability (Adavosertib + Pemetrexed; first compound 0.03162 µM): 0.922
relative viability (Adavosertib + Pemetrexed; first compound 0.1 µM): 0.959
relative viability (Adavosertib + Pemetrexed; first compound 0.3162 µM): 0.887
relative viability (Nelarabine + Vorinostat; first compound 0.01 µM): 0.601
relative viability (Nelarabine + Vorinostat; first compound 0.03162 µM): 0.475
relative viability (Nelarabine + Vorinostat; first compound 0.3162 µM): 0.427
relative viability (Nelarabine + Vorinostat; first compound 1 µM): 0.556
relative viability (Nelarabine + Pictilisib; first compound 0.01 µM): 0.156
relative viability (Nelarabine + Pictilisib; first compound 0.03162 µM): 0.215
relative viability (Nelarabine + Pictilisib; first compound 0.3162 µM): 0.261
relative viability (Nelarabine + Pictilisib; first compound 1 µM): 0.231

SK-LU-1
relative viability (Adavosertib + Olaparib; first compound 0.01 µM): 0.498
relative viability (Adavosertib + Olaparib; first compound 0.03162 µM): 0.461
relative viability (Adavosertib + Olaparib; first compound 0.1 µM): 0.389
relative viability (Adavosertib + Olaparib; first compound 0.3162 µM): 0.249
relative viability (Adavosertib + Pemetrexed; first compound 0.01 µM): 1.03
relative viability (Adavosertib + Pemetrexed; first compound 0.03162 µM): 0.967
relative viability (Adavosertib + Pemetrexed; first compound 0.1 µM): 0.812
relative viability (Adavosertib + Pemetrexed; first compound 0.3162 µM): 0.536
relative viability (Nelarabine + Vorinostat; first compound 0.01 µM): 0.789
relative viability (Nelarabine + Vorinostat; first compound 0.03162 µM): 0.585
relative viability (Nelarabine + Vorinostat; first compound 0.1 µM): 0.924
relative viability (Nelarabine + Vorinostat; first compound 0.3162 µM): 0.94
relative viability (Nelarabine + Vorinostat; first compound 1 µM): 0.845
relative viability (Nelarabine + Pictilisib; first compound 0.01 µM): 0.684
relative viability (Nelarabine + Pictilisib; first compound 0.03162 µM): 0.396
relative viability (Nelarabine + Pictilisib; first compound 0.1 µM): 0.546
relative viability (Nelarabine + Pictilisib; first compound 0.3162 µM): 0.606
relative viability (Nelarabine + Pictilisib; first compound 1 µM): 0.613

NCI-H2170
relative viability (Adavosertib + Olaparib; first compound 0.01 µM): 0.643
relative viability (Adavosertib + Olaparib; first compound 0.03162 µM): 0.586
relative viability (Adavosertib + Olaparib; first compound 0.1 µM): 0.588
relative viability (Adavosertib + Olaparib; first compound 0.3162 µM): 0.448
relative viability (Adavosertib + Pemetrexed; first compound 0.01 µM): 0.282
relative viability (Adavosertib + Pemetrexed; first compound 0.03162 µM): 0.248
relative viability (Adavosertib + Pemetrexed; first compound 0.1 µM): 0.271
relative viability (Adavosertib + Pemetrexed; first compound 0.3162 µM): 0.218
relative viability (Nelarabine + Vorinostat; first compound 0.01 µM): 1.09
relative viability (Nelarabine + Vorinostat; first compound 0.03162 µM): 0.835
relative viability (Nelarabine + Vorinostat; first compound 0.1 µM): 0.742
relative viability (Nelarabine + Vorinostat; first compound 0.3162 µM): 0.878
relative viability (Nelarabine + Vorinostat; first compound 1 µM): 0.71
relative viability (Nelarabine + Pictilisib; first compound 0.01 µM): 0.326
relative viability (Nelarabine + Pictilisib; first compound 0.03162 µM): 0.253
relative viability (Nelarabine + Pictilisib; first compound 0.1 µM): 0.253
relative viability (Nelarabine + Pictilisib; first compound 0.3162 µM): 0.34
relative viability (Nelarabine + Pictilisib; first compound 1 µM): 0.316

HOP-62
relative viability (Adavosertib + Olaparib; first compound 0.01 µM): 0.429
relative viability (Adavosertib + Olaparib; first compound 0.03162 µM): 0.3
relative viability (Adavosertib + Olaparib; first compound 0.1 µM): 0.663
relative viability (Adavosertib + Olaparib; first compound 0.3162 µM): 0.254
relative viability (Adavosertib + Pemetrexed; first compound 0.01 µM): 0.311
relative viability (Adavosertib + Pemetrexed; first compound 0.03162 µM): 0.285
relative viability (Adavosertib + Pemetrexed; first compound 0.1 µM): 0.283
relative viability (Adavosertib + Pemetrexed; first compound 0.3162 µM): 0.224
relative viability (Nelarabine + Vorinostat; first compound 0.01 µM): 0.783
relative viability (Nelarabine + Vorinostat; first compound 0.03162 µM): 0.618
relative viability (Nelarabine + Vorinostat; first compound 0.1 µM): 0.669
relative viability (Nelarabine + Vorinostat; first compound 0.3162 µM): 0.708
relative viability (Nelarabine + Vorinostat; first compound 1 µM): 0.638
relative viability (Nelarabine + Pictilisib; first compound 0.01 µM): 0.833
relative viability (Nelarabine + Pictilisib; first compound 0.03162 µM): 0.743
relative viability (Nelarabine + Pictilisib; first compound 0.1 µM): 0.815
relative viability (Nelarabine + Pictilisib; first compound 0.3162 µM): 0.574
relative viability (Nelarabine + Pictilisib; first compound 1 µM): 0.706

NCI-H2228
relative viability (Adavosertib + Olaparib; first compound 0.03162 µM): 0.749
relative viability (Adavosertib + Olaparib; first compound 0.1 µM): 0.519
relative viability (Adavosertib + Olaparib; first compound 0.3162 µM): 0.27
relative viability (Adavosertib + Pemetrexed; first compound 0.03162 µM): 0.331
relative viability (Adavosertib + Pemetrexed; first compound 0.1 µM): 0.361
relative viability (Adavosertib + Pemetrexed; first compound 0.3162 µM): 0.2
relative viability (Nelarabine + Vorinostat; first compound 0.01 µM): 0.634
relative viability (Nelarabine + Vorinostat; first compound 0.03162 µM): 0.569
relative viability (Nelarabine + Vorinostat; first compound 0.1 µM): 0.387
relative viability (Nelarabine + Vorinostat; first compound 0.3162 µM): 0.495
relative viability (Nelarabine + Vorinostat; first compound 1 µM): 0.792
relative viability (Nelarabine + Pictilisib; first compound 0.01 µM): 0.275
relative viability (Nelarabine + Pictilisib; first compound 0.03162 µM): 0.235
relative viability (Nelarabine + Pictilisib; first compound 0.3162 µM): 0.452
relative viability (Nelarabine + Pictilisib; first compound 1 µM): 0.268

SK-MES-1
relative viability (Adavosertib + Olaparib; first compound 0.01 µM): 0.748
relative viability (Adavosertib + Olaparib; first compound 0.03162 µM): 0.805
relative viability (Adavosertib + Olaparib; first compound 0.1 µM): 0.379
relative viability (Adavosertib + Olaparib; first compound 0.3162 µM): 0.233
relative viability (Adavosertib + Pemetrexed; first compound 0.01 µM): 0.958
relative viability (Adavosertib + Pemetrexed; first compound 0.03162 µM): 0.916
relative viability (Adavosertib + Pemetrexed; first compound 0.1 µM): 0.754
relative viability (Adavosertib + Pemetrexed; first compound 0.3162 µM): 0.338
relative viability (Nelarabine + Vorinostat; first compound 0.01 µM): 1.36
relative viability (Nelarabine + Vorinostat; first compound 0.03162 µM): 1.12
relative viability (Nelarabine + Vorinostat; first compound 0.1 µM): 1.18
relative viability (Nelarabine + Vorinostat; first compound 0.3162 µM): 1.36
relative viability (Nelarabine + Vorinostat; first compound 1 µM): 1.3
relative viability (Nelarabine + Pictilisib; first compound 0.01 µM): 0.34
relative viability (Nelarabine + Pictilisib; first compound 0.03162 µM): 0.318
relative viability (Nelarabine + Pictilisib; first compound 0.1 µM): 0.331
relative viability (Nelarabine + Pictilisib; first compound 0.3162 µM): 0.358
relative viability (Nelarabine + Pictilisib; first compound 1 µM): 0.373

NCI-H1755
relative viability (Adavosertib + Olaparib; first compound 0.01 µM): 0.87
relative viability (Adavosertib + Olaparib; first compound 0.03162 µM): 0.936
relative viability (Adavosertib + Olaparib; first compound 0.1 µM): 0.891
relative viability (Adavosertib + Olaparib; first compound 0.3162 µM): 0.72
relative viability (Adavosertib + Pemetrexed; first compound 0.01 µM): 0.419
relative viability (Adavosertib + Pemetrexed; first compound 0.03162 µM): 0.43
relative viability (Adavosertib + Pemetrexed; first compound 0.1 µM): 0.43
relative viability (Adavosertib + Pemetrexed; first compound 0.3162 µM): 0.392
relative viability (Nelarabine + Vorinostat; first compound 0.01 µM): 0.954
relative viability (Nelarabine + Vorinostat; first compound 0.03162 µM): 0.742
relative viability (Nelarabine + Vorinostat; first compound 0.1 µM): 0.682
relative viability (Nelarabine + Vorinostat; first compound 0.3162 µM): 0.861
relative viability (Nelarabine + Vorinostat; first compound 1 µM): 0.873
relative viability (Nelarabine + Pictilisib; first compound 0.01 µM): 0.488
relative viability (Nelarabine + Pictilisib; first compound 0.03162 µM): 0.429
relative viability (Nelarabine + Pictilisib; first compound 0.1 µM): 0.507
relative viability (Nelarabine + Pictilisib; first compound 0.3162 µM): 0.429
relative viability (Nelarabine + Pictilisib; first compound 1 µM): 0.522

NCI-H2126
relative viability (Adavosertib + Olaparib; first compound 0.01 µM): 0.909
relative viability (Adavosertib + Olaparib; first compound 0.03162 µM): 0.939
relative viability (Adavosertib + Olaparib; first compound 0.1 µM): 0.915
relative viability (Adavosertib + Olaparib; first compound 0.3162 µM): 0.919
relative viability (Adavosertib + Pemetrexed; first compound 0.01 µM): 0.615
relative viability (Adavosertib + Pemetrexed; first compound 0.03162 µM): 0.66
relative viability (Adavosertib + Pemetrexed; first compound 0.1 µM): 0.695
relative viability (Adavosertib + Pemetrexed; first compound 0.3162 µM): 0.643
relative viability (Nelarabine + Vorinostat; first compound 0.01 µM): 0.945
relative viability (Nelarabine + Vorinostat; first compound 0.03162 µM): 0.803
relative viability (Nelarabine + Vorinostat; first compound 0.1 µM): 0.689
relative viability (Nelarabine + Vorinostat; first compound 0.3162 µM): 0.691
relative viability (Nelarabine + Vorinostat; first compound 1 µM): 0.816
relative viability (Nelarabine + Pictilisib; first compound 0.01 µM): 0.517
relative viability (Nelarabine + Pictilisib; first compound 0.03162 µM): 0.48
relative viability (Nelarabine + Pictilisib; first compound 0.1 µM): 0.453
relative viability (Nelarabine + Pictilisib; first compound 0.3162 µM): 0.483
relative viability (Nelarabine + Pictilisib; first compound 1 µM): 0.5
